Assay results as given in CN108864033A, “苯基取代的酰肼衍生物及其用途” (Guangdong HEC Pharmaceutical Co Ltd, priority 2017, dated 2018).

Test system: glutamate-induced oxidative stress injury of HT22 cells (谷氨酸诱导的HT22细胞氧化应激损伤)
Experiment: Protection of HT22 cells against glutamate-induced oxidative stress injury (LDH release, cell viability)
Format: cell-based
Conditions: HT-22, HT22 mouse hippocampal neuronal cells, 15 mM glutamate, 24 h, 10 concentrations, 0.25% DMSO

Structure (SMILES) | EC50
Cc1ccc(N(/N=C/c2ccc3c(c2)OCO3)C(=O)C(F)(F)F)c(C)c1 [实施例1, (E)-N'-(苯并-1,3-二恶环戊烷-5-亚甲基)-N-(2,4-二甲苯基)-2,2,2-三氟乙酰肼] | 130 nM
Cc1ccc(N(/N=C/c2ccc(Cl)cc2Cl)C(=O)C(F)(F)F)c(C)c1 [实施例2, (E)-N'-(2,4-二氯苯亚甲基)-N-(2,4-二甲苯基)-2,2,2-三氟乙酰肼] | 130 nM
CC(=O)N(/N=C/c1ccc2c(c1)OCO2)c1ccc(C)cc1C [实施例3, (E)-N'-(苯并-1,3-二恶环戊烷-5-亚甲基)-N-(2,4-二甲苯基)乙酰肼] | 4120 nM
